Assay results taken from publication PMC10718076, “1,2-Disubstituted bicyclo[2.1.1]hexanes as saturated bioisosteres of ortho-substituted benzene” (Chemical Science, 2023).
In brackets after ≈: the same amount, converted by molar mass. Where two headings read alike, the source gives them in different places.

What was measured:
[1] = Kinetic solubility in phosphate-buffered saline, pH 7.4; type: physicochemical; conditions: 25 °C, kinetic from dmso stock, phosphate-buffered saline; for solubility kinetic at 2 h: aqueous buffer, pH 7.4, read-out: Sol.: experimental kinetic solubility; for solubility at 2 h: pH 7.4, aqueous buffer
Protocol: Analysis of Aqueous Solubility […]
compound (Ondansetron) were assessed for kinetic solubility in phosphate -buffered saline, pH 7.4.
Phosphate buffered saline, pH 7.4 (Sigma -Aldrich, USA; Cat #P3813) […]
MultiScreen HTS 96 Well Filter Plates (Millipore, Ireland; Cat # MSSLBPC10) […]
Matrix Multichannel Electronic Pipette 2-125 μL, 5-250 μL, 15-1250 μL (Thermo Scientific, USA; […]
Vacuum pump (Millipore, USA; Model # XX5500000)
The measurements were performed using SpectraMax Plus reader in UV -Vis mode. Acquisition and […]
The measurements were performed using SpectraMax Paradigm reader in UV-Vis mode.
Acquisition and analysis of the data were performed using SoftMax Pro v.5.4 (Molecular Devices) […]
Kinetic solubility assay was performed according to the Enamine’s aqueous solubility SOP. Briefly, using a 20 mM stock solution of the compound in 100% DMSO dilutions were prepared to a theoretical concentration of 400 μM in duplicates in phosphate-buffered saline pH 7.4 […]
compound dilutions in PBS were further allowed to equilibrate at 25 °C on a thermostatic shaker for two hours and then filtered through HTS filter plates using a vacuum manifold. The filtrates of test compounds were diluted 2-fold with acetonitrile with 2% DMSO before measuring.
In parallel, compound dilutions in 50% acetonitrile/PBS were prepared to theoretical concentrations […]
calibration curves. Ondansetron was used as reference compound to control proper assay performance. 200 μl of each sample was transferred to 96-well plate and measured in 230-550 nm range with 5 nm step. The effective range of this assay is approximately 2-400 μM and the […]
The concentrations of compounds in PBS filtrate are calculated using a dedicated Microsoft Excel calculation script. Proper absorbance wavelengths for calculations are selected for each compound manually based on absorbance maximums (absolute absorbance unit values for the minimum and maximum concentration points within the 0 – 3 OD range). Each final dataset is visually evaluated by the operator, and goodness of fit (R2) is calculated for each calibration curve. […]
samples were diluted 2-fold with acetonitrile containing internal standard and were analyzed using the HPLC system coupled with a tandem mass spectrometer. The effective range of this assay is […]

[2] = system: Aspergillus niger (strain VURV-F 822); assay: Antifungal disk diffusion method; type: cell-based; conditions: for zone of inhibition at 4 µg/mL: Concentration 0.004 mg/mL, Boscalid, Bixafen marked st; for zone of inhibition at 4 µg/mL / zone of inhibition at 8 µg/mL / zone of inhibition at 16 µg/mL / zone of inhibition at 30 µg/mL / zone of inhibition at 60 µg/mL: 0 = absence of antifungal activity; for zone of inhibition at 4 µg/mL / zone of inhibition at 60 µg/mL: Fluxapyroxad; for zone of inhibition at 4 µg/mL / zone of inhibition at 8 µg/mL / zone of inhibition at 16 µg/mL / zone of inhibition at 30 µg/mL / zone of inhibition at 60 µg/mL / zone of inhibition at 120 µg/mL / zone of inhibition at 250 µg/mL / zone of inhibition at 500 µg/mL / zone of inhibition at 1000 µg/mL / zone of inhibition at 2000 µg/mL: read-out: Diameter of inhibition zone; for zone of inhibition at 8 µg/mL: Concentration 0.008 mg/mL; for zone of inhibition at 16 µg/mL: Concentration 0.016 mg/mL; for zone of inhibition at 30 µg/mL: Concentration 0.03 mg/mL; for zone of inhibition at 30 µg/mL / zone of inhibition at 60 µg/mL: (±)-29 marked st; for zone of inhibition at 60 µg/mL: Concentration 0.06 mg/mL, Bixafen; for zone of inhibition at 120 µg/mL: Concentration 0.12 mg/mL, (±)-28 marked st (static growth); for zone of inhibition at 250 µg/mL: Concentration 0.25 mg/mL, (±)-28 marked st (static growth, secondary growth of mycelium); for zone of inhibition at 500 µg/mL: Concentration 0.5 mg/mL; for zone of inhibition at 500 µg/mL / zone of inhibition at 1000 µg/mL / zone of inhibition at 2000 µg/mL: 10 μl per disk; for zone of inhibition at 1000 µg/mL: Concentration 1 mg/mL; for zone of inhibition at 2000 µg/mL: Concentration 2 mg/mL
Protocol: Antifungal activity of the synthetic compounds using disk diffusion methods The compounds were tested for plant pathogens Aspergillus niger (strain VURV-F 822), which was received from Culture collection of microorganisms of Crop Research Institute (Prague, Czech […]
The synthetic compounds' antifungal activity was evaluated using a disk diffusion assay for testing filamentous fungi (CLSI M51-A) and broth microdilution antifungal susceptibility testing (EUCAST E.DEF 7.3.1; CLSI M38-A2)
[CLSI M51-A. Method for Antifungal Disk Diffusion Susceptibility Testing of Nondermatophyte Filamentous Fungi; Approved Guideline.CLSI document M51-A. Wayne, PA:
Clinical and Laboratory Standards Institute; 2010. This method is standardized for Altenaria, Aspergillus, Bipolaris, Fusarium, order Mucorales, etc.]
[CLSI M38-A2. 2008. Reference method for broth dilution antifungal susceptibility testing of filamentous fungi, 2nd ed Approved standard M38 -A2 Clinical and Laboratory Standards Institute, […]
Antifungal disk diffusion method
The solutions of fungicides and their analogues were diluted in dimethyl sulfoxide (DMSO) to […]
mg/mL for each test component. Sterile paper disks (ASPECT, Ukraine) were soaked with 10 μl of a solution of the appropriate fungicide from the highest concentration to the lowest.
The fungal strains were cultured on Petri dishes with Saburo dextrose agar (Condalab, Spain) and incubated at 25 °C for 5 days. Sterile Dulbecco's phosphate -buffered saline (DPBS) with 0,1 % Tween 20 was used to cover colonies of fungus for obtained conidia l suspension. Suspension of conidia was adjusted to inoculums 2×10^5 conidia/mL by sterile DPBS.
For antifungal disk diffusion test we used square Petri dishes (FALCON A Corning Brand, USA). The conidial suspension (0.5 mL) was added to Petri dishes with Saburo dextrose agar. The suspension was evenly distributed over the surface of the nutrient medium with a glass spatula.
After the surface of the inoculated medium was dry, the disks with different concentrations of testing compounds were added to the Petri dishes. Each compound was tested in triplicate at different concentrations. Growth control was a disk with 10 μl of DMSO, which was used for test […]
Petri dishes incubated at 25 °C for 72 h. The test compounds at known concentrati on into contact with an inoculated medium then exert a growth-inhibiting effect then a clear zone (the zone of […]
inhibition) appears around the test product. The diameter of a clear zone around the well is […]
If the fungal strain is susceptible to the antifungal agent, then a zone of inhibition appears on the agar plate. If it is resistant to the test compound, then no zone is evident. The size of the zone of inhibition is usually related to the level of antifungal activity present in the compound – a larger […]
The growth rate of all strains for each concentration of test compounds was determined visually and compared with the growth of control.
Broth microdilution antifungal susceptibility testing
A 96-well CELLSTAR plate (sterile, flat-bottomed, polystyrene, transparent) was used to determine MIC by broth microdilution method. Also, dabble straight RPMI-1640 medium with 2% glucose (2x RPMI 2%G) was used for this method. Spore suspension for plate inoculation was prepared according to the method described above for the disc diffusion method.
The each well in the plate contained 49 μl of medium (2x RPMI 2%G), 50 μl of inoculum (prepared in DPBS) and 1 μl of the stock solution of the test substance. Positive control wells contained 50 μl medium and 50 μl inoculum, and sterile control wells contained 50 μl medium and […]
To determine the MIC by the microdilution method, a series of stock solutions of fungicides and their analogues in DMSO with the following concentrations were prepared: 3.2 mg/mL, 1.6 mg/mL, […]
1 μl of the stock solutions of the test substances were added to each well to obtain the following […]
Immediately after adding all the components to the plates, the optical density was measured at […]

[3] = Metabolic stability in human liver microsomes; conditions: both; for remaining at 40 min, 2 µM: Mean of 2, 40 min; for remaining at 25 min, 2 µM: Mean of 2, 25 min
[4] = Table S5, injection 1, octanol/PBS pH 7.4
[5] = Table S5, injection 2, octanol/PBS pH 7.4
[6] = Table S5, injection 3, octanol/PBS pH 7.4
[7] = human liver microsomes (pooled), pH 7.4
[8] = human liver microsomes (pooled), pH 7.4, % Remaining, Table S9, 4st batch
[9] = Table S2, 2st batch, read-out: PBS solubility, pH 7.4, Incubation 1
[10] = Table S2, 2st batch, read-out: PBS solubility, pH 7.4, Incubation 2
[11] = Table S2, 2st batch, read-out: PBS solubility, pH 7.4, Mean
[12] = liver microsomes (pooled), pH 7.4, % Remaining without cofactor, no NADPH cofactor, Table S6, 1st batch
[13] = liver microsomes (pooled), pH 7.4, % Remaining, Mean of 2, 7 min, Table S6, 1st batch
[14] = liver microsomes (pooled), pH 7.4, % Remaining, Mean of 2, 15 min, Table S6, 1st batch
[15] = liver microsomes (pooled), pH 7.4, % Remaining, Table S6, 1st batch
[16] = liver microsomes (pooled), pH 7.4, kel, Table S6, 1st batch
[17] = liver microsomes (pooled), pH 7.4, t1/2, Table S6, 1st batch

Row | solubility kinetic at 2 h [1] | D [4] | D [5] | D [6] | microsomal CLint at 2 μM [3, 7] | solubility at 2 h [1, 9] | solubility at 2 h [1, 10] | solubility at 2 h [1, 11] | remaining at 40 min, 2 µM [3, 12] | remaining at […], 2 µM [3, 13] | SMILES | zone of inhibition at 4 µg/mL [2] | zone of inhibition at 8 µg/mL [2] | zone of inhibition at 16 µg/mL [2] | zone of inhibition at 30 µg/mL [2] | zone of inhibition at 60 µg/mL [2] | zone of inhibition at 120 µg/mL [2] | zone of inhibition at 250 µg/mL [2] | zone of inhibition at 500 µg/mL [2] | zone of inhibition at 1000 µg/mL [2] | zone of inhibition at 2000 µg/mL [2] | other results
1 | 30 µM (≈ 12.4 µg/mL) | 1.23E+04 | 1.53E+04 | 2.30E+04 | ~10 µL/min/mg | – | – | – | – | – | Cn1cc(C(=O)Nc2ccc(F)cc2-c2ccc(Cl)c(Cl)c2)c(C(F)F)n1 [Bixafen, bixafen] | 9 ± 2 mm | 15.8 ± 1.25 mm | 14.5 ± 1 mm | 20.2 ± 2.25 mm | 20.5 ± 1.75 mm | 27 ± 1 mm | 32 ± 2.5 mm | 32.8 ± 1.75 mm | 35.2 ± 1.4 mm | 38 ± 1 mm | solubility at 2 h ([1]; Table S4, 4nd batch, read-out: PBS solubility, pH 7.4, Incubation 1): 29 µM (≈ 12 µg/mL); solubility at 2 h ([1]; Table S4, 4nd batch, read-out: PBS solubility, pH 7.4, Incubation 2): 31 µM (≈ 12.8 µg/mL); solubility at 2 h ([1]; Table S4, 4nd batch, read-out: PBS solubility, pH 7.4, Mean): 30 µM (≈ 12.4 µg/mL); MIC ([2]; disk diffusion, small zones of inhibition with secondary mycelial growth, read-out: minimum inhibitory concentration): 4 µg/mL (≈ 9.66 µM); remaining at 40 min, 2 µM ([3]; human liver microsomes (pooled), pH 7.4, % Remaining without cofactor, no NADPH cofactor, Table S9, 4st batch): 101%; remaining at […], 2 µM ([3]; human liver microsomes (pooled), pH 7.4, % Remaining, Mean of 2, 7 min, Table S9, 4st batch): 105%; remaining at […], 2 µM ([3]; human liver microsomes (pooled), pH 7.4, % Remaining, Mean of 2, 15 min, Table S9, 4st batch): 97%; remaining at 25 min, 2 µM [3, 8]: 93%; remaining at 40 min, 2 µM [3, 8]: 87%; k el at 2 μM ([3]; human liver microsomes (pooled), pH 7.4, kel, Table S9, 4st batch, * approximate due to high stability): ~6.67e-05 s⁻¹; half-life at 2 µM ([3]; human liver microsomes (pooled), pH 7.4, t1/2, Table S9, 4st batch, * approximate due to high stability): ~161 min
2 | 35 µM (≈ 12.2 µg/mL) | 3.84E+03 | 3.81E+03 | 3.49E+03 | 29 µL/min/mg | 35 µM (≈ 12.2 µg/mL) | 34 µM (≈ 11.8 µg/mL) | 35 µM (≈ 12.2 µg/mL) | 116% | 88% | O=C(NC1CC2CC1(c1ccc(Cl)cc1)C2)c1cccnc1Cl (stereo not shown) [Compound 28] | 0 mm | 0 mm | 0 mm | 0 mm | 0 mm | 9 ± 0.5 mm | 7.5 ± 0.5 mm | 10.5 ± 1.5 mm | 13.8 ± 0.88 mm | 15.5 ± 0.5 mm | remaining at […], 2 µM [3, 14]: 82%; remaining at 25 min, 2 µM [3, 15]: 72%; remaining at 40 min, 2 µM [3, 15]: 61%; k el at 2 µM [3, 16]: 0.0002 s⁻¹; half-life at 2 µM [3, 17]: 57.6 min
3 | 4 µM (≈ 1.6 µg/mL) | 1.26E+04 | 1.38E+04 | 1.92E+04 | – | 4 µM (≈ 1.6 µg/mL) | 4 µM (≈ 1.6 µg/mL) | 4 µM (≈ 1.6 µg/mL) | 106% | 83% | Cn1cc(C(=O)NC2CC3CC2(c2ccc(Cl)c(Cl)c2)C3)c(C(F)F)n1 (stereo not shown) [Compound 29] | 0 mm | 0 mm | 0 mm | 3.5 ± 0.5 mm | 6.5 ± 1 mm | 8.75 ± 1.25 mm | 12 ± 0.5 mm | 12.5 ± 1.5 mm | 16.2 ± 1.25 mm | 23.5 ± 2 mm | microsomal CLint at 2 µM ([3]; liver microsomes (pooled), pH 7.4): 35 µL/min/mg; remaining at […], 2 µM [3, 14]: 73%; remaining at 25 min, 2 µM [3, 15]: 67%; remaining at 40 min, 2 µM [3, 15]: 54%; k el at 2 µM [3, 16]: 0.00025 s⁻¹; half-life at 2 µM [3, 17]: 47.4 min
